Structures can show the parent of a compound that is named as a salt.
Test system: Wistar rats
Test: Sleep and behavioral monitoring in rats (EEG, EMG, motion)
Type: in vivo
Details: rat; for Rebound Insomnia, Adj. Mean: NREM + REM sleep in 7th-9th hours post-treatment; for Rebound Insomnia, Adj. Mean / REM inhibition, Adj. Mean / Cumulative NREM sleep, Adj. Mean / Cumulative Total sleep, Adj. Mean / Locomotor Activity Intensity, Adj. Mean: difference from vehicle; for REM inhibition, Adj. Mean: REM sleep in first 12 hours post-treatment; for Cumulative NREM sleep, Adj. Mean / Cumulative Total sleep, Adj. Mean / Locomotor Activity Intensity, Adj. Mean / Average Sleep Bout, Adj. Mean / Longest Sleep Bout, Adj. Mean: first 6 hours post-treatment; for Average Sleep Bout, Adj. Mean / Longest Sleep Bout, Adj. Mean: n-fold increase over vehicle controls
Protocol: Sleep and behavioral monitoring in rats: Representative compounds of the present invention are tested in rats for their ability to increase the amount of sleep or decrease sleep interruption or both without undesired effects such as inhibition of REM sleep, waking motor impairment, and/or rebound insomnia. Test animals are continuously monitored by electro-encephalograms (EEG), electromyograms (EMG), and motion to measure cumulative nonREM sleep, cumulative total sleep, average sleep bout duration, longest sleep bout duration, rebound insomnia, REM sleep inhibition and locomotor activity intensity during wakefulness. Methods for such studies are known in the art (see for example methods described in Edgar D M, Seidel W F. Modafinil induces wakefulness without intensifying motor activity or subsequent rebound hypersomnolence in the rat. J Pharmacology & Experimental Therapeutics 1997; 283: 757-769; van Gelder R N, Edgar D M, Dement W C. Real-time automated sleep scoring: validation of a microcomputer-based system for mice. Sleep 1991, 14: 48-55; and Gross B A, Walsh C M, Turakhia A A, Booth V, Mashour G A, Poe G R. Open-source logic-based automated sleep scoring software using electrophysiological recordings in rats. J Neurosci Methods. 2009; 184(1):10-8.) Studies are conducted as follows: Animal preparation. Adult, male Wistar rats (approximately 270-300 g at time of surgery) are surgically fitted for chronic recording of EEG, EMG, and motion as follows: Rats are surgically prepared with a cranial implant consisting of four stainless steel screws for EEG recording (two frontal [3.9 mm anterior from bregma, and ±2.0 mm mediolaterally] and two occipital [6.4 mm posterior from bregma, ±5.5 mm mediolaterally]), and with two Teflon-coated stainless steel wires for EMG recording (positioned under the nuchal trapezoid muscles). All leads are soldered to a miniature connector (Microtech, Boothwyn, Pa.) prior to surgery. The implant assembly is affixed to the skull by the combination of the stainless steel EEG recording screws, cyanoacrylate applied between the implant connector and skull, and dental acrylic. Locomotor activity is monitored via a miniature transmitter (Minimitter PDT4000G, Philips Respironics, Bend, Oreg.) surgically placed into the abdomen. At least 3 weeks are allowed for recovery. Recording environment. Each rat is housed individually within a microisolator cage modified with an inserted polycarbonate filter-top riser to allow more vertical headroom. A flexible cable that minimally restricts movement is connected at one end to a commutator affixed to the cage top and at the other end to the animal's cranial implant. Each cage is located within separate, ventilated compartments of a stainless steel sleep-wake recording chamber. Food and water are available ad libitum and the ambient temperature is maintained at about 23±1° C. A 24-hr. light-dark cycle (LD 12:12) using fluorescent light is maintained throughout the study. Relative humidity averages approximately 50%. Animals are undisturbed for at least 30 hrs before and after each treatment. Study design and dosing. The vehicle (placebo, methylcellulose 15 centipoise 0.25% in water) or one of the test compound dose levels is administered orally at 1 mL/kg pseudo-randomly such that no rat receives the same treatment twice, and no rat receives more than two of the 8 treatments in any one study. Each rat is removed from its cage for about a minute to be weighed and treated. At least 6 days “washout” period precede and follow each treatment. Data collection. […]

[1] = PO, 6 hour period after treatment

## Cc1cc2n(c1)Cc1cc(Cl)ccc1N=C2N1CCN(CC(C)(C)C(=O)O)CC1 [Example 13, 3-[4-(7-Chloro-2-methyl-5H-pyrrolo[2,1-c][1,4]benzodiazepin-11-yl)piperazin-1-yl]-2,2-dimethylpropanoic acid dihydrochloride]
0.03 mg/kg PO
  Rebound Insomnia, Adj. Mean: -0.7 min
  REM inhibition, Adj. Mean: 1.8 min
  Cumulative NREM sleep, Adj. Mean: 5.1 min
  Cumulative Total sleep, Adj. Mean: 7.3 min
  Locomotor Activity Intensity, Adj. Mean: −0.97 LMA counts per minute of EEG-defined wakefulness
  Average Sleep Bout, Adj. Mean: 1.1 n-fold
  Longest Sleep Bout, Adj. Mean: 1.3 n-fold
0.10 mg/kg PO
  Rebound Insomnia, Adj. Mean: -5.4 min
  REM inhibition, Adj. Mean: 1.0 min
  Cumulative NREM sleep, Adj. Mean: 5.9 min
  Cumulative Total sleep, Adj. Mean: 5.9 min
  Locomotor Activity Intensity, Adj. Mean: −0.35 LMA counts per minute of EEG-defined wakefulness
  Average Sleep Bout, Adj. Mean: 1.1 n-fold
  Longest Sleep Bout, Adj. Mean: 1.7 n-fold
0.25 mg/kg PO
  Rebound Insomnia, Adj. Mean: -1.9 min
  REM inhibition, Adj. Mean: 4.7 min
  Cumulative NREM sleep, Adj. Mean: 15.2 min
  Cumulative Total sleep, Adj. Mean: 17.7 min
  Locomotor Activity Intensity, Adj. Mean: −0.58 LMA counts per minute of EEG-defined wakefulness
  Average Sleep Bout, Adj. Mean: 1.2 n-fold
  Longest Sleep Bout, Adj. Mean: 1.7 n-fold
0.50 mg/kg PO
  Rebound Insomnia, Adj. Mean: -7.2 min
  REM inhibition, Adj. Mean: 5.8 min
  Cumulative NREM sleep, Adj. Mean: 22.2 min
  Cumulative Total sleep, Adj. Mean: 25.1 min
  Locomotor Activity Intensity, Adj. Mean: −0.14 LMA counts per minute of EEG-defined wakefulness
  Average Sleep Bout, Adj. Mean: 1.4 n-fold
  Longest Sleep Bout, Adj. Mean: 1.8 n-fold
1 mg/kg PO
  Rebound Insomnia, Adj. Mean: -9.7 min
  REM inhibition, Adj. Mean: 2.6 min
  Cumulative NREM sleep, Adj. Mean: 28.0 min
  Cumulative Total sleep, Adj. Mean: 30.6 min
  Locomotor Activity Intensity, Adj. Mean: −2.94 LMA counts per minute of EEG-defined wakefulness
  Average Sleep Bout, Adj. Mean: 1.6 n-fold
  Longest Sleep Bout, Adj. Mean: 2.5 n-fold
3 mg/kg
  REM sleep inhibition (in words): without significant
  cumulative NREM sleep time (in words): significantly increase
  cumulative total sleep time (in words): significantly increase
  inhibition of locomotor intensity (LMI) (in words): without significant
  rebound insomnia (in words): without significant
3 mg/kg PO
  Rebound Insomnia, Adj. Mean: -7.8 min
  REM inhibition, Adj. Mean: 7.0 min
  Cumulative NREM sleep, Adj. Mean: 39.5 min
  Cumulative Total sleep, Adj. Mean: 42.3 min
  Locomotor Activity Intensity, Adj. Mean: −1.49 LMA counts per minute of EEG-defined wakefulness
  Average Sleep Bout, Adj. Mean: 1.8 n-fold
  Longest Sleep Bout, Adj. Mean: 2.7 n-fold
10 mg/kg PO
  Rebound Insomnia, Adj. Mean: 3.1 min
  REM inhibition, Adj. Mean: 2.9 min
  Cumulative NREM sleep, Adj. Mean: 51.8 min
  Cumulative Total sleep, Adj. Mean: 52.8 min
  Locomotor Activity Intensity, Adj. Mean: −0.11 LMA counts per minute of EEG-defined wakefulness
  Average Sleep Bout, Adj. Mean: 2.3 n-fold
  Longest Sleep Bout, Adj. Mean: 3.1 n-fold
[1]
  Estimated efficacy dose (mg/kg), NREM accumulation = 30 min: 1.2 mg/kg
  Estimated efficacy dose (mg/kg), average sleep bout (1.5-fold increase): 0.77 mg/kg
  Estimated efficacy dose (mg/kg), longest sleep bout (1.75-fold increase): 0.21 mg/kg
  Estimated efficacy dose (mg/kg), total sleep accumulation = 25 min: 0.58 mg/kg

Source: patent US8314092B2, “Substituted [(5H-pyrrolo[2,1-c][1,4]benzodiazepin-11-yl)piperazin-1-yl]-2,2-dimethylpropanoic acid compounds as dual activity H1 inverse agonists/5-HT2A antagonists” (Eli Lilly and Company, priority 2011, dated 2012)
